In US20210290597A1, “METHOD OF TREATING A CONDITION ASSOCIATED WITH NEURODEGENERATION USING INHIBITORS OF OAT3” (Neuropore Therapies, Inc., priority 2018, published 2021):

Legend:
Format in all cases: in vivo
[1] = test system: microtubule-associated protein 1A/1B-light chain 3 (LC3); test: LC3 immunolabeling, L61 ASYN transgenic mice, 1 month study; conditions: 1, 5 or 10 mg/kg per day i.p.
Experimental: Multiple in vivo administration studies of Compound 1 were carried out in the Line 61 (L61) mThy1-alpha-synuclein transgenic mouse model of Parkinson's disease (PD). The mThy1-alpha-synuclein transgenic mouse model overexpresses wild-type human ASYN under the Thy-1 promoter (commonly referred to as Line 61 transgenic mice; Rockenstein et al., 2002). This transgenic mouse develops extensive accumulation of alpha-synuclein (ASYN) in areas relevant to PD (Rockenstein et al., 2002; Chesselet et al., 2012; Games et al., 2013), neurodegeneration including dopaminergic neurodegeneration, reduced dopamine (DA) and TH loss in the striatum (Masliah et al., 2000; Lam et al., 2011), and motor deficits (Fleming et al., 2004). […]
Alpha-synuclein (ASYN) is a neuronal protein whose dysregulation has been implicated in the pathogenesis of PD. The effects of Compound 1 on alpha-synuclein aggregation were assessed in both L61 ASYN transgenic and non-transgenic mice in a 1 month administration study. […] At the end of one month, the mice were sacrificed, and immunohistochemical (IHC) detection of total alpha-synuclein deposits, insoluble alpha-synuclein deposits (PK+resistant), microtubule-associated protein 1A/1B-light chain 3 (LC3), and monomeric alpha-synuclein levels were assessed in the harvested brain tissues.

[2] = test system: glial fibrillary acidic protein (GFAP); test: GFAP IHC, L61 ASYN transgenic mice
Experimental: Neuroinflammation is also associated with increased expression of glial fibrillary acidic protein (GFAP) in activated astrocytes, which is induced by a variety of molecules including pro-inflammatory mediators released from activated microglia (Saijo et al. 2009). Increased expression of glial fibrillary acidic protein (GFAP) represents astroglial activation and gliosis during neurodegeneration. (Brahmachari et al., 2006). The effects of Compound 1 on GFAP expression were assessed in both L61 ASYN transgenic and non-transgenic mice in a 1 month administration study. After 30 days, the mice were sacrificed, and IHC detection of GFAP was assessed in the harvested brain tissues.
The harvested brain tissues from treated mice were fixed (drop fixed in 4% PFA) and then sectioned into 40 micro thick sections using a vibratome. The representative sections containing the hippocampus were assessed for GFAP with standard immunohistochemistry staining. The general methods used for GFAP immunostaining follow those described in Rockenstein et al., J Neurosci Res. 2002, 68(5):568-78.

L61 ASYN transgenic mice = test: Grip strength, L61 ASYN transgenic mice, 3 month study; conditions: 5 mg/kg and 10 mg/kg i.p. daily, after 70 days of treatment
Experimental: The effects of Compound 1 on the motor performance deficits (grip strength) and a marker of neuroinflammation (Translocator Protein (18 kDa)) were assessed in both L61 ASYN transgenic and non-transgenic mice in a 3 month administration study.
Briefly, Compound 1 was injected into L61 ASYN transgenic mice and non-transgenic control mice (i.p., once daily) at doses of 5 and 10 mg/kg for 3 months (79 total mice, n=14-17 mice per treatment group). The vehicle control consisted of a solution containing 5% DMSO+20% Cremphor EL+0.9% normal saline. The baseline grip strength of mice was evaluated prior to starting treatments for the 3 month study, and then re-evaluated following 70 days of treatment with vehicle or Compound 1 (5 or 10 mg/kg, i.p. injection daily).

SMILES: O=S(=O)(c1ccc(-n2cn[nH]c2=S)cc1)c1ccc(Cl)c(C(F)(F)F)c1 [Compound 1, 4-(4-((4-chloro-3-(trifluoromethyl)phenyl)sulfonyl)phenyl)-2,4-dihydro-3H-1,2,4-triazole-3-thione]
- levels of LC3 immunolabeling in cortex and striatum [1]: increased
- GFAP levels, IHC staining intensity in representative images ([2]; 5 mg/kg or 10 mg/kg daily i.p.): reducing cortical levels of GFAP
- GFAP levels, quantification of IHC staining ([2]; 10 mg/kg daily i.p.): reduces the cortical GFAP levels in a statistically significant manner
- grip strength vs vehicle-treated transgenic mice (L61 ASYN transgenic mice): higher grip strengths
